# Test results as given in patent US20120185956A1, “GLOBAL NAV1.7 KNOCKOUT MICE AND USES” (priority 2011, published 2012).
# Columns and labels:
# [1] = system: rats (Sprague-Dawley, male); details: rat, in vivo
# Experimental: Veratridine was injected intra-plantar at 30 micrograms.
# Known preclinical and clinical analgesics were tested to see if they could prevent veratridine-induced behaviors.
# male mice (CD1 strain) = details: mouse, in vivo
# NaV1.9 = NaV1.9 (Rattus norvegicus, UniProt O88457); details: cited from earlier work
# Sequence of NaV1.9 (O88457 whole entry, looked up): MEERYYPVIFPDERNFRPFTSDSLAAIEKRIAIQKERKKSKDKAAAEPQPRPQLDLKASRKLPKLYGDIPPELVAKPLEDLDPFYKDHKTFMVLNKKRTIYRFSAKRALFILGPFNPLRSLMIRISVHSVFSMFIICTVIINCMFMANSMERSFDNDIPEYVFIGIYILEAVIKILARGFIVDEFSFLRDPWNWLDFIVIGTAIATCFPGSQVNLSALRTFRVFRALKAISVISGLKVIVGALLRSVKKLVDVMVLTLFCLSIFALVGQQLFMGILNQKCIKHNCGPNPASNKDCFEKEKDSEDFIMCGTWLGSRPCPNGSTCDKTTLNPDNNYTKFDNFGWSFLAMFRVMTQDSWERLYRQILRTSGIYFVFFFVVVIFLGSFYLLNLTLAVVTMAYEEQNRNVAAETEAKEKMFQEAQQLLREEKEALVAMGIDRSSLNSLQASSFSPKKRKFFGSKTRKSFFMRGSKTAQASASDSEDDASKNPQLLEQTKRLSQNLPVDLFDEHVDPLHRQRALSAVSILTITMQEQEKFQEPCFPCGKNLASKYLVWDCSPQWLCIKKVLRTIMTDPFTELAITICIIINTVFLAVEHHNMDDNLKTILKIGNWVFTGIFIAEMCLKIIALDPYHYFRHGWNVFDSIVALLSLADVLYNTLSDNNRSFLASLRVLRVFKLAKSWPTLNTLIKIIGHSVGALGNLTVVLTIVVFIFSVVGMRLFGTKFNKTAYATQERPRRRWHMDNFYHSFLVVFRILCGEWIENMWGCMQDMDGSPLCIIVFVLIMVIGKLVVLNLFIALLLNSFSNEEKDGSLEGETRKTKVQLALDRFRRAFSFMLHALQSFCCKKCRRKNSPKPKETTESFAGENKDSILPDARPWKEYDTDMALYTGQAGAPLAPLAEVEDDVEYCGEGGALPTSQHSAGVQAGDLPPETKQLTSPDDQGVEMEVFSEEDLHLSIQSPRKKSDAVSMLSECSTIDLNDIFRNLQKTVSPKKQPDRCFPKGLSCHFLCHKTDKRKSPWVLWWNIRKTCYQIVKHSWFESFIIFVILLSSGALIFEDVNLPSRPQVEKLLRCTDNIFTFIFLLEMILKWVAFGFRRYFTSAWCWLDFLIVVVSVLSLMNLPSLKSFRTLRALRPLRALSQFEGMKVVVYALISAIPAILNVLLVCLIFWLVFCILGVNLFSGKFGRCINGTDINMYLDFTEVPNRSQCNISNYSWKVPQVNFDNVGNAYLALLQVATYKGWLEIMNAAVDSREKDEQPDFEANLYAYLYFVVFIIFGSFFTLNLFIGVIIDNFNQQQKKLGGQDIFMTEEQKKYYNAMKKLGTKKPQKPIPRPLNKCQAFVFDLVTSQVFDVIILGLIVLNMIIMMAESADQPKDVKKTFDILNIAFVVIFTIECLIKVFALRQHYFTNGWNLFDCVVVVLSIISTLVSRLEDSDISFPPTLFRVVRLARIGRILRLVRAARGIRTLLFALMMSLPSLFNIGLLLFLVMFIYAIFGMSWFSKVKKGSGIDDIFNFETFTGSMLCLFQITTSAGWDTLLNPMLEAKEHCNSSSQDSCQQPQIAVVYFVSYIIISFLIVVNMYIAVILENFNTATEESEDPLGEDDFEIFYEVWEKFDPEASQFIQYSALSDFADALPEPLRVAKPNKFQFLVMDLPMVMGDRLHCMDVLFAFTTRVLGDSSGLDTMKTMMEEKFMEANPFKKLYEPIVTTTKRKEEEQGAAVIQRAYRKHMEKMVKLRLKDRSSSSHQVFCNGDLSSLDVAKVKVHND
# NaV1.8 = NaV1.8 (Rattus norvegicus, UniProt Q62968); details: cited from earlier work
# NaV1.5 = NaV1.5 (Rattus norvegicus, UniProt P15389); details: cited from earlier work
# hNaV1.7 = target: T1, hNaV1.7 (Homo sapiens, UniProt Q15858); format: cell-based
# T1 construct: expressed in transfected cells; host or cells: HEK 293
# T1 sequence (Q15858 whole entry): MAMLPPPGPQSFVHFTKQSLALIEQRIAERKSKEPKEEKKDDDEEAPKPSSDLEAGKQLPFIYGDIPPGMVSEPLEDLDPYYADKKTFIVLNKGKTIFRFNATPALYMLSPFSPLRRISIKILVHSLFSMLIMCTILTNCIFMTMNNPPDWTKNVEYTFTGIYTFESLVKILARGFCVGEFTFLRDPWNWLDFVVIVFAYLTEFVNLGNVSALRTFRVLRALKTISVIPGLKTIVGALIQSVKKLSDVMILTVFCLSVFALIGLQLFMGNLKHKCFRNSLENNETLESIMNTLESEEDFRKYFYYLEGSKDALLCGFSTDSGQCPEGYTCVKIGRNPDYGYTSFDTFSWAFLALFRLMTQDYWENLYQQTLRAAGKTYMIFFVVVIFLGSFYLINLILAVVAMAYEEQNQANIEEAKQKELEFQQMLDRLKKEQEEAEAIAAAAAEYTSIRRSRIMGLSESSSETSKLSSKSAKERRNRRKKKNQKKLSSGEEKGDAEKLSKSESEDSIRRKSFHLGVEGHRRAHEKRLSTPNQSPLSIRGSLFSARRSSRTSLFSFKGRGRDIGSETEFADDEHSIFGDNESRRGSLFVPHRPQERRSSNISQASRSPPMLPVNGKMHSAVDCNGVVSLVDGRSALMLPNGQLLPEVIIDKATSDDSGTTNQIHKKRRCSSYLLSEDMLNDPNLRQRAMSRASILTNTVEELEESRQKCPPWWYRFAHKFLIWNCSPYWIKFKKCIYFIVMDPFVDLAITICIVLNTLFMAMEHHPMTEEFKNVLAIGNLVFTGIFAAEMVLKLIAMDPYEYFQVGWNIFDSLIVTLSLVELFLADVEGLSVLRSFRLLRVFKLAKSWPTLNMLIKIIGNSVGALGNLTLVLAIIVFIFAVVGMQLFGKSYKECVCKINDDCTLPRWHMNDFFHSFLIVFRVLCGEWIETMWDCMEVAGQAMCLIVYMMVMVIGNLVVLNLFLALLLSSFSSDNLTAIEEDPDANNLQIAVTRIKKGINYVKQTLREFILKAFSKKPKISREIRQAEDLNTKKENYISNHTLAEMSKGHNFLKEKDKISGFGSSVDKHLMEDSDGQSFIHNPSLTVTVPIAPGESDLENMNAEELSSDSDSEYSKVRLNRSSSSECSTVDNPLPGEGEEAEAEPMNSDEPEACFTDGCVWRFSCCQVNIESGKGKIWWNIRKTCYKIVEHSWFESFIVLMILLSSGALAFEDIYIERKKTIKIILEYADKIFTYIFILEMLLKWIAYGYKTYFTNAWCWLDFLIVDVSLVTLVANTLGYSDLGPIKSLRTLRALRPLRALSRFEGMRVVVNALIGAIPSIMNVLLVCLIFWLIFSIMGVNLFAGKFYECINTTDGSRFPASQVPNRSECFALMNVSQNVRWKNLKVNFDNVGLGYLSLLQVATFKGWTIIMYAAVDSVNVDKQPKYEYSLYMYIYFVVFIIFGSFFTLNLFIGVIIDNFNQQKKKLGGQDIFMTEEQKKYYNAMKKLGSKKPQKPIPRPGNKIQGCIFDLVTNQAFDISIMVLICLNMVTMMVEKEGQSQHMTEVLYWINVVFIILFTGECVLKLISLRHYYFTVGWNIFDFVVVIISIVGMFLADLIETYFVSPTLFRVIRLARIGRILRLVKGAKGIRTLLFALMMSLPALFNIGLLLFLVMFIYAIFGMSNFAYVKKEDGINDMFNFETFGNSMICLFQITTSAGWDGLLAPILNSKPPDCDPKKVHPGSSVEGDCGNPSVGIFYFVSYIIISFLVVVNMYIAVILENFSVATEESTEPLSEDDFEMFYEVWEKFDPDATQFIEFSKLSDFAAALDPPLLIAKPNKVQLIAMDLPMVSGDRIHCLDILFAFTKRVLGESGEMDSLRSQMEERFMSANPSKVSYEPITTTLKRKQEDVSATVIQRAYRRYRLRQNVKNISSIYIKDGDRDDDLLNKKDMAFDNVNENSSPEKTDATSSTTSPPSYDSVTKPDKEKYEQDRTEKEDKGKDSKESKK
structure (smiles),measurement,setting,value
CN1C(=O)CN=C(c2ccccc2)c2cc(Cl)ccc21 [Diazepam],Significant Reversal of Edema,[1],No
same,Significant Reversal of Flinching,[1],No
same,Significant Reversal of Lifting,[1],No
same,"sodium channel activator-induced pain-like behaviors (licking, flinching)",[1],ineffective
"CNCC[C@H](Oc1cccc2ccccc12)c1cccs1 [Duloxetine, duloxetine]",Significant Reversal of Edema,[1],No
same,"sodium channel activator-induced pain-like behaviors (licking, flinching)",[1],inhibited somewhat
"NCC1(CC(=O)O)CCCCC1 [Gabapentin, gabapentin]",Significant Reversal of Edema,[1],No
"Cc1cccc(C)c1OCC(C)N (centres unmarked) [Mexiletine, mexiletine]",effects of veratridine (lifting),male mice (CD1 strain),blocked
same,lifting/licking response to deltamethrin,male mice (CD1 strain),prevented the lifting/licking response
same,lifting/licking response to grayanotoxin III,male mice (CD1 strain),prevented the lifting/licking response
same,Significant Reversal of Edema,[1],Yes
same,Significant Reversal of Flinching,[1],Yes
same,Significant Reversal of Lifting,[1],Yes
same,veratridine-induced lifting and flinching behaviors,[1]; po,prevented in a dose-dependent manner
"CN1CC[C@]23c4c5ccc(O)c4O[C@H]2[C@@H](O)C=C[C@H]3[C@H]1C5 [Morphine, morphine]",Significant Reversal of Edema,[1],No
"COc1ccc2cc([C@H](C)C(=O)O)ccc2c1 [Naproxen, naproxen]",Significant Reversal of Edema,[1],No
"NC1=N[C@H](O)[C@H]2[C@H]3O[C@]4(O)O[C@@H]([C@@H](O)[C@@]2(N1)[C@@H]4O)[C@]3(O)CO [TTX, tetrodotoxin]",block by TTX,NaV1.9,resistant to block
same,block by TTX,NaV1.8,resistant to block
same,block by TTX,NaV1.5,resistant to block
CC1(C)[C@H](C(=O)O[C@H](C#N)c2cccc(Oc3ccccc3)c2)[C@@H]1C=C(Br)Br [deltamethrin],response to injected sodium channel modulator,male mice (CD1 strain),produced a lifting/licking response
CC1(O)CC23CC(O)C4(O)C(CC(O)C4(C)C)C(C)(O)C2CCC1C3O (centres unmarked) [grayanotoxin III],response to injected sodium channel modulator,male mice (CD1 strain),produced a lifting/licking response
same,inactivation during the test pulse,hNaV1.7,did not inactivate
same,voltage at which sodium currents start to be activated,hNaV1.7,−95 mV
"COc1ccc(C(=O)O[C@H]2CC[C@@]3(C)[C@@H]4CC[C@H]5[C@]6(O)C[C@H](O)[C@@]7(O)[C@@H](CN8C[C@@H](C)CC[C@H]8[C@@]7(C)O)[C@]6(O)C[C@@]53O[C@]24O)cc1OC [veratridine, 4α,9-Epoxy-3β-veratroyloxy-5β-cevan-4β,12,14,16β,17,20-hexaol]",lifting behavior caused by veratridine,male mice (CD1 strain),caused equivalent lifting behavior
same,pain-related behaviors caused by veratridine injected into the paw,[1],caused two separate pain-related behaviors
same,side effects of veratridine,[1],variable neurological side effects
